Measured values reported in patent publication US6528677B1, “Selective retinoid agonists” (Hoffmann-La Roche Inc., priority 1999, dated 2003).

Assays:
[1] = tested on: elastase-induced emphysema in rats; test: Repair of alveoli in elastase-induced emphysema (rat model); type: in vivo, male Sprague Dawley rats; details: starting 21 days post elastase injury, morphometric analysis of lung sections
Experimental: Effects of RAR Selective Retinoids on Repair of Alveoli in Elastase-induced Emphysema
RAR selective agonists were evaluated for its effects on alveolar repair in the rat model of elastase-induced emphysema in rats (D. Massaro et al. Nature Medicine (1997, 3, 675). Animals were divided into treatment groups of approximately eight. Lung inflammation and alveolar damage was induced in male Sprague Dawley rats by a single installation of pancreatic elastase(porcine derived, Calbiochem) 2 U/gram body mass. Three weeks post injury all-trans retinoic acid or RAR agonist was dissolved in dimethylsulfoxide (20 mg/ml) and stored at −20 C. Fresh working stocks were prepared fresh daily by dilution in PBS to a final concentration of 2 mg/ml. Animals were dosed once daily with the retinoid by intraperitoneal injection or orally, starting 21 days post injury. Control groups were challenged with elastase and 21 days later treated with Vehicle (DMSO/PBS) for 14 days. Animals were sacrificed 24 hours after the last dose of by exsanguination under deep anesthesia.
The lungs were inflated with 10% neutral buffered formalin by intratracheal instillation at a constant rate (1 ml/gram body mass/min). The lung was excised and immersed in fixative for 24 hours prior to processing. Standard methods were used to prepare 5 um paraffin sections. Sections were stained with Hematoxylin and Eosin (H%E). Computerized Morphometric analysis was performed to determine the average alveolar size and alveolar number (Table 1).

Compound: CC1(C)CCC(C)(C)C2=C1CC(C)(C(=O)Oc1ccc(C(=O)O)cc1)C2 [B, 2,4,4,7,7-pentamethyl-2,3,4,5,6,7-hexahydro-1H-indene-2-carboxylic acid 4-carboxy-phenyl ester]
- melting point: 205 to 206 °C

Compound: CCC1(C(=O)Oc2ccc(C(=O)O)cc2)CC2=C(C1)C(C)(C)CCC2(C)C [C, 2-ethyl-4,4,7,7-tetramethyl-2,3,4,5,6,7-hexahydro-1H-indene-2-carboxylic acid 4-carboxy-phenyl ester]
- melting point: 175 to 176 °C

Compound: CC1(C)CCC(C)(C)C2=C1CC(Cc1ccccc1)(C(=O)Oc1ccc(C(=O)O)cc1)C2 [E, 2-benzyl-4,4,7,7-tetramethyl-2,3,4,5,6,7-hexahydro-1H-indene-2-carboxylic acid 4-carboxy-phenyl ester]
- melting point: 183 to 184 °C

Compound: CCCC1(C(=O)Oc2ccc(C(=O)O)cc2)CC2=C(C1)C(C)(C)CCC2(C)C [Example 3.5, 4,4,7,7-Tetramethyl-2-propyl-2,3,4,5,6,7-hexahydro-1H-indene-2-carboxylic acid 4-carboxy-phenyl ester]
- melting point: 156 to 157 °C

Compound: CCCCC1(C(=O)Oc2ccc(C(=O)O)cc2)CC2=C(C1)C(C)(C)CCC2(C)C [Example 3.6, 2-Butyl-4,4,7,7-tetramethyl-2,3,4,5,6,7-hexahydro-1H-indene-2-carboxylic acid 4-carboxy-phenyl ester]
- melting point: 172 to 173 °C

Compound: CC(C)CC1(C(=O)Oc2ccc(C(=O)O)cc2)CC2=C(C1)C(C)(C)CCC2(C)C [Example 3.7, 2-Isobutyl-4,4,7,7-tetramethyl-2,3,4,5,6,7-hexahydro-1H-indene-2-carboxylic acid 4-carboxy-phenyl ester]
- melting point: 194 to 196 °C

Compound: CCCCCCC1(C(=O)Oc2ccc(C(=O)O)cc2)CC2=C(C1)C(C)(C)CCC2(C)C [Example 3.8, 2-Hexyl-4,4,7,7-tetramethyl-2,3,4,5,6,7-hexahydro-1H-indene-2-carboxylic acid 4-carboxy-phenyl ester]
- melting point: 149 to 150 °C

Compound: CC1(C)CCC(C)(C)C2=C1CC(CCc1ccccc1)(C(=O)Oc1ccc(C(=O)O)cc1)C2 [Example 3.9, 4,4,7,7-Tetramethyl-2-phenethyl-2,3,4,5,6,7-hexahydro-1H-indene-2-carboxylic acid 4-carboxy-phenyl ester]
- melting point: 182 to 183 °C

Compound: CCCCCC1(C(=O)Oc2ccc(C(=O)O)cc2)CC2=C(C1)C(C)(C)CCC2(C)C [compound D, 4,4,7,7-tetramethyl-2-pentyl-2,3,4,5,6,7-hexahydro-1H-indene-2-carboxylic acid 4-carboxy-phenyl ester]
- melting point: 156 to 158 °C
- % repair area ([1]; 0.3 mg/kg p.o. once daily): 11.1%
- % repair area ([1]; 0.5 mg/kg i.p. once daily): 54%
- % repair area ([1]; 1 mg/kg p.o. once daily): 44%
- % repair area ([1]; 3 mg/kg p.o. once daily): 48.6%
